# Reference: patent publication US20250312332A1, “TREATMENT OF MUSCLE FIBROSIS” (University of Newcastle upon Tyne, priority 2022, published 2025)
# Several values for one entry are separate records, joined by “and”; a condition that tells them apart may be missing. Equal entries are not always repeated. Entries after “also recorded” stand apart in the source; their conditions may differ. Where two headings read alike, the source gives them in different places.
# Key:
# [1] = system: FAPs
# [2] = system: RhoA pathway; test: RhoA downstream effectors in quadriceps of dba/2J-mdx mice (qPCR, IF); format: in vivo, mouse
# [3] = system: dba/2J-mdx mice; test: Quadriceps histology and immunofluorescence in dba/2J-mdx mice; format: in vivo, mouse
# [4] = system: FAPs; format: cell-based, human
# [5] = system: FAPs; format: cell-based, human; remark: listed apart in the source
# [6] = system: FAPs; format: cell-based, human; details: for increase in FAPs proliferation: vs untreated FAPs
# [7] = system: dba/2J-mdx mice; test: Fasudil treatment of dba/2J-mdx mice: behaviour and weight; details: mouse, in vivo
# [8] = system: dba/2J-mdx mice; test: Grip strength test in dba/2J-mdx mice; format: in vivo, mouse; details: after six weeks of treatment, vs non-treated mice
# [9] = system: FAPs; format: cell-based, human; details: for increase in FAPs migration: vs untreated FAPs
# [10] = system: dba/2J-mdx mice; test: Cytokine array of quadriceps in dba/2J-mdx mice; format: in vivo, mouse; details: treated vs non-treated mice
# [11] = system: dba/2J-mdx mice; test: Flow cytometry of muscle macrophages in dba/2J-mdx mice; format: in vivo, mouse
# [12] = system: myosin light chain 2 (p-MLC2); format: cell-based, human
# [13] = system: RhoA-GTP; format: cell-based, human; details: DMD-FAPs, PDGF-AA 50 ng/ml 20 min, vs untreated FAPs
compound,measurement,setting,value
"O=S(=O)(c1cccc2cnccc12)N1CCCNCC1 [Fasudil, 5-(1,4-diazepan-1-ylsulfonyl)isoquinoline]",cell viability,[1],did not affect cell viability; also recorded: neither C3-exoenzyme nor fasudil had any effect on cell viability
same,"RhoA pathway downstream effector targets (ROCK2, LIMK2, FHOD1)",[2]; 100 mg/kg/day orally 6 weeks,inhibited RhoA pathway
same,protein expression of LIMK2,[2]; treated vs untreated mice,significantly reduced
same,protein expression of MLC2,[2]; treated vs untreated mice,significantly reduced
same,reduction in collagen-I area in the quadriceps,[3]; 100 mg/kg/day orally 6 weeks,23%
same,myofiber size,[3]; treated vs non-treated mice,significant increase
same,neutrophil population in quadriceps,[3]; treated vs non-treated mice,trend towards a reduction
same,number of T and B cells in quadriceps,[3]; treated vs non-treated mice,no changes
same,decrease in the PDGFRα area (number of FAPs) in quadriceps,"[3]; treated vs non-treated, not significant",42%
same,reduction of quadriceps area stained with F4/80 (macrophages),[3]; treated vs untreated mice,74%
same,polymerization of intracellular actin filaments,[4],impinged
same,release of collagen-I to the culture medium,[5],reversed
same,decrease in proliferation rate,[6],2.6 fold
same,proliferation inhibition,[6],lack of proliferation inhibition
same,behaviour during the treatment period (adverse effects),[7],did not experience any change in their behaviour
same,"body weight, treated vs untreated mice",[7],decrease in weight
same,increase in forelimb strength,[8],1.76 fold
same,reduction of migration rate,[9],2.43 fold and 4 fold
same,"TNFα, IL-4, IL-17, CXCL1, CXCL2, CXCL10, CCL2, CCL3 or CCL17 cytokine levels",[10],reduction
same,decrease in the number of F4/80 positive cells,"[11]; flow cytometry, treated vs non-treated mice",18.3%
same,reduction in the expression levels of CD163 marker in macrophages,[11]; skeletal muscles of treated mice,31%
same,reduction in the expression levels of CD206 marker in macrophages,[11]; treated mice,18%
same,expression levels or number of CD209 cells (M2 macrophages),[11]; treated vs non-treated mice,did not observe any difference
same,percentage of positive cells or expression of CD80 and DR (M1 markers),[11]; treated vs non-treated mice,did not observe changes
same,lower number of CD163+ cells,[11]; vs non-treated mice,3%
same,lower number of CD206+ cells,[11]; vs non-treated mice,10%
same,effect on PDGF-AA-induced MLC2 phosphorylation,[12],reversed
PDGF-AA,cell viability,[1],did not affect cell viability
same,polymerization of intracellular actin filaments,[4],induced polymerization
same,release of collagen-I to the culture medium,[5]; 4 days treatment,increased non-significantly
same,increase in the RhoA-GTP levels,[13],1.88 fold
same,increase in FAPs proliferation,[6]; 48 hours,3.6 fold
same,increase in FAPs proliferation,[6]; 72 hours,6 fold
same,increase in FAPs migration,[9]; 48 hours,2.48 fold
same,increase in FAPs migration,[9]; 72 hours,3.37 fold
same,increase in MLC2 phosphorylation,[12]; DMD-FAPs treated with PDGF-AA,2.3 fold
